Results from article PMC10708353, “Malvidin and Its Mono- and Di-Glucosides Forms: A Study of Combining Both In Vitro and Molecular Docking Studies Focused on Cholinesterase, Butyrylcholinesterase, COX-1 and COX-2 Activities” (Molecules, 2023).
Where two headings read alike, the source gives them in different places. Marks after values point to notes of the source that are not given here.

Tests used:
COX-1 (ovine) = biological target: T1, COX-1 (ovine) (Ovis aries, UniProt P05979); experiment: COX colorimetric inhibitor screening assay, COX-1; format: biochemical
T1 construct: purchased Cayman Chemical, Ann Arbor, MI, USA 701050
T1 sequence (P05979 25-600): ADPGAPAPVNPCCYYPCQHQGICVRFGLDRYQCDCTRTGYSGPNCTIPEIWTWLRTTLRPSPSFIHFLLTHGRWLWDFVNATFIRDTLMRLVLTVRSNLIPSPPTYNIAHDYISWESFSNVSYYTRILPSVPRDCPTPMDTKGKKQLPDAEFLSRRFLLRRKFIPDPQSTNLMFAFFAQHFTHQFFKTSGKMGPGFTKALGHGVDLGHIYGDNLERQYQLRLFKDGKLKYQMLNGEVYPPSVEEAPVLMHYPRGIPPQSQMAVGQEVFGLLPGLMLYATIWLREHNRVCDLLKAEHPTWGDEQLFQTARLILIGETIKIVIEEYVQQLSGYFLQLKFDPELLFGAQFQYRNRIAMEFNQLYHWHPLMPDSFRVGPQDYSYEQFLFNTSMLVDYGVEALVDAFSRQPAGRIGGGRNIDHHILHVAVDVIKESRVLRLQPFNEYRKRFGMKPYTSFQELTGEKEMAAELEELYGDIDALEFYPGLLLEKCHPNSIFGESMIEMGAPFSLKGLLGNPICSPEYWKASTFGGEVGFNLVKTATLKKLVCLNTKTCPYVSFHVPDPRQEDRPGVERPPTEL
Procedure: (§1) Firstly, the plate was carefully shaken for a few seconds and incubated for 5 min at 25 °C. Secondly, 20 μL of colorimetric substrate solution was added to each plate’s well. It was the addition of 20 μL of arachidonic acid (final concentration in reaction mixture 100 µM) which initiated the reaction. Thirdly, the plate was shaken again for a few seconds and incubated for two min at 25 °C. […] The percentage of COX inhibition was calculated using the Equation (1): […]
(§2) The IC50 parameter was calculated referring to plots showing the relation between percentage of COX inhibition and concentration of the compounds.

[1] = biological target: T2, Butyrylcholinesterase from equine serum (BChE) (Equus caballus, UniProt P81908); experiment: Butyrylcholinesterase inhibition assay (Ellman method, modified); format: biochemical
T2 construct: Butyrylcholinesterase from equine serum (BChE); purchased Merck kGaA, Darmstadt, Germany; host or cells: equine serum
T2 sequence (P81908 whole entry): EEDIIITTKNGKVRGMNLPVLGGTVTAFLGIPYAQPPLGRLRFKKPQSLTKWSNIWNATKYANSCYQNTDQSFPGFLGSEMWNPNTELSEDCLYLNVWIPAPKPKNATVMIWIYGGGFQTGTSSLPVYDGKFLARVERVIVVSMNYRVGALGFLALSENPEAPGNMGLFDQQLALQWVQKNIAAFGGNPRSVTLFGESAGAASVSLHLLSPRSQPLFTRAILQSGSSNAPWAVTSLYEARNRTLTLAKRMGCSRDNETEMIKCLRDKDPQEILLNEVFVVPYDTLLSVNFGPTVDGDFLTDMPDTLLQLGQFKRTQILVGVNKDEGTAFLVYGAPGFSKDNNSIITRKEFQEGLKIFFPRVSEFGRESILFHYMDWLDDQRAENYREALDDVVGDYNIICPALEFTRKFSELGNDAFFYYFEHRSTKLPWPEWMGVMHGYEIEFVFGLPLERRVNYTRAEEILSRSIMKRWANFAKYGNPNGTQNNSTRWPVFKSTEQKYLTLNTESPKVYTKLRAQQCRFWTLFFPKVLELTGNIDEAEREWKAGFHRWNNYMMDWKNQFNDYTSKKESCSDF
From the text: (§3) 5,5′-Dithiobis(2-nitrobenzoic acid), (DTNB), acetylthiocholine iodide, butyryl-thiocholine iodide, acetylcholinesterase from Electrophorus electricus, type VI-S (aChE), Butyrylcholinesterase from equine serum (BChE), neostigmine bromide, and sodium dodecyl sulfate (SDS) were purchased from Merck kGaA, Darmstadt, Germany.
(§4) Referring to both the Ellman and Jin et al. methods, we identified acetylcholinesterase/butyrylcholinesterase activity, implementing minor modifications. In brief, the assay was carried out on a 96-well plate, with each well containing 140 µL 0.1 M phosphate buffer (pH 8.0), 10 µL of stock solution of Mv, or Mv 3-glc or Mv 3,5-diglc, 10 µL AChE/BChE (1 units/mL). The plate was incubated for 10 min at 25 °C. Subsequently, 10 μL of a 10 mM DTNB was added to the reaction mixture. In the following step, the reaction was initiated by adding 10 μL of a 14 mM acetylthiocholine iodide/butyryl-thiocholine iodide. The plate was shaken for one minute and finally 20 µL of 5% SDS was added in order to stop the reaction. Control wells, which contained the same composition except for the studied compounds (10 µL, 70% ethanol), were included. […] All of the reactions were performed in five repetitions. The percent of AChE/BChE inhibition was calculated using the following formula:(1) %Inhibition=Ac−As/Ac·100% where: As refers to the absorbance of the sample containing Mvs and Ac refers to the absorbance of the control sample. The studies of AChE and BChE inhibition were also performed depending on the concentration of the drug, neostigmine, as a positive control.

[2] = biological target: T3, COX-2 (human recombinant) (Homo sapiens, UniProt P35354); experiment: COX colorimetric inhibitor screening assay, COX-2; format: biochemical; details: for Selectivity Index COX-2/COX-1: ratio of IC50 COX-2 to IC50 COX-1
T3 construct: purchased Cayman Chemical, Ann Arbor, MI, USA 701050
T3 sequence (P35354 18-604): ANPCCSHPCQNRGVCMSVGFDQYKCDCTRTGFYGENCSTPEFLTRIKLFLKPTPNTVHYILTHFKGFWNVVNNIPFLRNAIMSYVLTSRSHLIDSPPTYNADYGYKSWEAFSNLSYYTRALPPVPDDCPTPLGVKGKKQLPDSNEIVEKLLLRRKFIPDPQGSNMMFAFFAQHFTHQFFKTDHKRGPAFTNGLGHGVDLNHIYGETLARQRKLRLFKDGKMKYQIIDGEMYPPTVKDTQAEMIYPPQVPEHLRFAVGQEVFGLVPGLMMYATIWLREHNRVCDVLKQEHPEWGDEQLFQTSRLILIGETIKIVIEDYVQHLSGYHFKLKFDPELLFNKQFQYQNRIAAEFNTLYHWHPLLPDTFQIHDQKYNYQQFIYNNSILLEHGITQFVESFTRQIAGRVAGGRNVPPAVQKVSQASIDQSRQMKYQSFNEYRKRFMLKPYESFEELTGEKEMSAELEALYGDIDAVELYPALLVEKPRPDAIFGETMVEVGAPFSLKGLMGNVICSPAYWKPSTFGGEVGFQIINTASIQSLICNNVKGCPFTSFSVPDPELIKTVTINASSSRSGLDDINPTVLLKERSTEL
Procedure: as §1, §2

[3] = physiological pH, species established in previous publication, cited from earlier work
[4] = biological target: T4, acetylcholinesterase from Electrophorus electricus, type VI-S (AChE) (Electrophorus electricus, UniProt O42275); experiment: Acetylcholinesterase inhibition assay (Ellman method, modified); format: biochemical
T4 construct: purchased Merck kGaA, Darmstadt, Germany
T4 sequence (O42275 24-633): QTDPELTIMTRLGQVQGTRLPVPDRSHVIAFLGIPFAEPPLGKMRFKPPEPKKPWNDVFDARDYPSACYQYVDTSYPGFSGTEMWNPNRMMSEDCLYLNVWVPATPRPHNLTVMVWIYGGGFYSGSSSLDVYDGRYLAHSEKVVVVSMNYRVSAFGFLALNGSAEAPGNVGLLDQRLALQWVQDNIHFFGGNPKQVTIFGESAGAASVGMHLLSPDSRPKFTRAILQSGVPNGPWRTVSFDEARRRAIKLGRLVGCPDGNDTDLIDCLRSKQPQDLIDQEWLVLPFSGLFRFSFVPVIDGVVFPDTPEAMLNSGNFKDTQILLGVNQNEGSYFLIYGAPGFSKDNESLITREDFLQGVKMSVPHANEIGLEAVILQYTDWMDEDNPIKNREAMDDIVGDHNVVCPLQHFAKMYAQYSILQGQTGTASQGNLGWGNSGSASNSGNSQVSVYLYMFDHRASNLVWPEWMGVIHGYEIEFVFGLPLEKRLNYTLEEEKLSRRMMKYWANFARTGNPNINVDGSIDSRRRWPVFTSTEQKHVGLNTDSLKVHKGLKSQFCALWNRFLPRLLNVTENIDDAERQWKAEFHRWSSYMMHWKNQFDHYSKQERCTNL
From the text: as §3, §4

[5] = compound concentration 100 µM, 100 µM
[6] = compound concentration 100 µM, read-out: Inhibition of BChE (%)
[7] = compound concentration 100 µM, read-out: Inhibition of AChE (%)

| Compound | IC50 (COX-1 (ovine)) [µM] | Inhibition of BChE (%) [1, 5] | inhibition at 100 µM ([1]; read-out: Inhibition of BChE (%), compound concentration 100 µM) [%] | IC50 [2] [µM] | Selectivity Index COX-2/COX-1 [2] | fM (population of the species) [3] [%] | fM (population of the species) ([3]; listed as Mv 3-glc^2−) [%] | fM (population of the species) ([3]; listed as Mv 3-glc^−) [%] | Inhibition of AChE (%) [4, 5] | inhibition at 100 µM ([4]; read-out: Inhibition of AChE (%), compound concentration 100 µM) [%] | inhibition at 100 µM [1, 6] [%] | fM (population of the species) ([3]; listed as Mv 3,5-diglc^–) [%] | inhibition at 100 µM [4, 7] [%] | inhibition at 20.28 µM ([1]; neostigmine concentration 20.28 µM, positive control) [%] | IC50 ([1]; positive control) [µM] | inhibition at 0.17 µM ([4]; neostigmine concentration 0.17 µM, positive control) [%] | IC50 ([4]; positive control) [µM] | fM (population of the species) ([3]; listed as Mv^2−) [%] | fM (population of the species) ([3]; listed as Mv^3−) [%] | fM (population of the species) ([3]; listed as Mv^−) [%] |
| --- | --- | --- | --- | --- | --- | --- | --- | --- | --- | --- | --- | --- | --- | --- | --- | --- | --- | --- | --- | --- |
| COc1cc(-c2[o+]c3cc(O)cc(O)c3cc2OC2OC(CO)C(O)C(O)C2O)cc(OC)c1O (stereo not drawn) [Mv 3-glc, malvidin 3-O-glucoside] | 74.78 ± 0.06 | 22.1 ± 3.0 ^a % | 22.1 ± 3 | 39.9 ± 3.02 | 0.53 | 3.49 | 18.33 | 78.18 | 26.3 ± 3.1 ^a % | 26.3 ± 3.06 | – | – | – | – | – | – | – | – | – | – |
| COc1cc(-c2[o+]c3cc(O)cc(OC4OC(CO)C(O)C(O)C4O)c3cc2OC2OC(CO)C(O)C(O)C2O)cc(OC)c1O (stereo not drawn) [Mv 3,5-diglc, malvidin 3,5-O-diglucoside] | 90.4 ± 1.92 | – | – | 66.5 ± 1.93 | 0.83 | 39.19 | – | – | – | – | 13.4 ± 2.4 | 60.70 | 11.9 ± 4.5 | – | – | – | – | – | – | – |
| CN(C)C(=O)Oc1cccc([N+](C)(C)C)c1 [Neostigmine, neostigmine bromide, reference compound] | – | – | – | – | – | – | – | – | – | – | – | – | – | 50 ± 4.2 | 20.3 ± 1.7 | 50 ± 1.2 | 0.17 ± 0.01 | – | – | – |
| COc1cc(-c2[o+]c3cc(O)cc(O)c3cc2O)cc(OC)c1O [Mv, malvidin] | 12.4 ± 0.7 | – | – | 2.76 ± 0.16 | 0.22 | 39.56 | – | – | – | – | 10.2 ± 2.2 | – | 19.5 ± 2.3 | – | – | – | – | 8.08 | 0.13 | 52.15 |
